# Measurements taken from patent US20080011613A1, “Method of electrolytically depositing a pharmaceutical coating onto a conductive osteal implant” (priority 2004, published 2008).
# Experiment: Precipitation boundary of etidronate in the presence of Ca2+ by NaOH titration
# Assay type: physicochemical
# Settings: Ca:etidronate molar ratio 2:1, titration with NaOH
# Protocol: Etidronic acid has a molecular weight of 206.03 (Fluka, Switzerland). The precipitation boundary of etidronate in the presence of Ca^2+ was determined by titration and used for choosing the solution conditions suitable for electrolytic deposition (ELD). A series of 50 mL solutions containing etidronate (15, 10, 9, 5, 4, 2.5, 1.9, 1.25, 1.22, 1.15, 1.10, and 0.625 mM) and Ca(NO3)2 of different concentrations, with Ca:etidronate molar ratio all fixed at 2:1, were prepared and titrated with NaOH solutions until the first visual sign of turbidity (end point/the precipitation boundary). The pH and NaOH volume consumption at end points were recorded and the Ca^2+ and etidronate concentrations at this point was calculated using equation (Eq. 3): [formula] where C is the titrate (etidronate or Ca^2+) concentration (mM) at the end point, C0 is the titrate concentration (mM) before titration, and VNaOH is NaOH volume (mL) consumption at the end point of titration.
# After the precipitation boundary was established, etidronate 5.0 mM, Ca^2+ 10 mM, and pH 4.50 were chosen as the solution conditions for ELD. […] This volume also provided reasonable space to accommodate the experiment setup, that is, two electrodes and the fixture.
smiles,measurement,value
"CC(O)(P(=O)(O)O)P(=O)(O)O [etidronate, 1-hydroxy-ethylidene-1,1-diphosphonate]",Etidronate concentration at which no precipitation could be visually judged,< 1.15 mM
